Experimental findings from patent US8791267B2, “Biaryl PDE4 inhibitors for treating inflammatory, cardiovascular and CNS disorders” (Decode Genetics EHF, priority 2007, dated 2014) are described below.

Molecules are shown by their SMILES. Where a name gives a salt, the structure may show the parent alone.

The target of one experiment is PDE4B (Homo sapiens, UniProt Q07343). Kind of experiment: In-vitro assay for PDE4 enzymes, real-time enzyme-coupled spectrophotometric assay, PDE4B Activity (Table 10). The note with it: human PDE4B (hPDE4B), enzyme-coupled spectrophotometric assay; read-out: PDE4B Activity, hPDE4B. Format: biochemical.
Sequence of PDE4B (Q07343 whole entry): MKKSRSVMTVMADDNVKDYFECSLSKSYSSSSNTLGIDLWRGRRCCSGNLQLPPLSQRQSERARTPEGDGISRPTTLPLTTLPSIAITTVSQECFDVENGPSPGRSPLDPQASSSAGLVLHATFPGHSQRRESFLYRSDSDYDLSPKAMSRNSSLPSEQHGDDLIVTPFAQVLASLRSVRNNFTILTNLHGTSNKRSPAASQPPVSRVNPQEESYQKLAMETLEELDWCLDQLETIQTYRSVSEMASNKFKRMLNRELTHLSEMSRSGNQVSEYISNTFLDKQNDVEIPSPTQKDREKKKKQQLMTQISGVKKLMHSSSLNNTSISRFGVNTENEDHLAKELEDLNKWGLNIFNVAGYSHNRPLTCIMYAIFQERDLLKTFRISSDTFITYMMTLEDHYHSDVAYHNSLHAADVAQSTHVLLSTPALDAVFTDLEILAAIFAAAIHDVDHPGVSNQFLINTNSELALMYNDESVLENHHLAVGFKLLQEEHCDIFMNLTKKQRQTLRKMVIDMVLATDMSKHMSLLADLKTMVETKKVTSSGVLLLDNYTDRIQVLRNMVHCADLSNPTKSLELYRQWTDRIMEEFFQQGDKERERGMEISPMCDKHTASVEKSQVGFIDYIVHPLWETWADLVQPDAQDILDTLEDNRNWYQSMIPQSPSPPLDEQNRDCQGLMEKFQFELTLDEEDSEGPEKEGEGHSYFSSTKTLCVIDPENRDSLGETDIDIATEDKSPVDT
For a further experiment, the target named is PDE4 (Homo sapiens, UniProt Q08499). The experiment in a line: In-vitro assay for PDE4 enzymes, real-time enzyme-coupled spectrophotometric assay (Table 9). Format: biochemical. The note with it: human PDE4D; activity class, Table 9; read-out: hPDE4D.
Sequence of PDE4 (Q08499 whole entry): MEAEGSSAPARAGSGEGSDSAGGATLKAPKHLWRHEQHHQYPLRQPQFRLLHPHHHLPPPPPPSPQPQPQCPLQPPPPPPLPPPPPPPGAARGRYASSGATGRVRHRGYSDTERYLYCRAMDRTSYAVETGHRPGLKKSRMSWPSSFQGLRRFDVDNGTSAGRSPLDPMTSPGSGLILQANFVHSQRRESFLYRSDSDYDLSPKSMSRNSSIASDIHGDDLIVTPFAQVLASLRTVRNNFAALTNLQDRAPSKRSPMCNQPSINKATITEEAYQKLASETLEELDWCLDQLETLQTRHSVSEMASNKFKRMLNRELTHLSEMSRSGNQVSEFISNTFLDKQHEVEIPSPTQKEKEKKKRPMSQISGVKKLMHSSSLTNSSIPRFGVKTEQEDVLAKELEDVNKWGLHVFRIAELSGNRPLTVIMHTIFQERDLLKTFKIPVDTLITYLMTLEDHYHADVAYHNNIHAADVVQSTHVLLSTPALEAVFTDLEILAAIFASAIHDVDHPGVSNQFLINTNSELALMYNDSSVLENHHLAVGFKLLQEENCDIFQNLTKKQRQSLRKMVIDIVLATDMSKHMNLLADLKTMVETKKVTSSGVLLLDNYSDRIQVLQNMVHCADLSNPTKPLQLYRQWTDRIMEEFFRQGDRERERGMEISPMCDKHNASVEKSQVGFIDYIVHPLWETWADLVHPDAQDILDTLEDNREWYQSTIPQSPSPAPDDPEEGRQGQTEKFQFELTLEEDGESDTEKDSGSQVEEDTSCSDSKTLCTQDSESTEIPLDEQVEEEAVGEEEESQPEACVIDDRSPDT

For `COc1ccc(Cc2cnc(NS(C)(=O)=O)nc2)c(F)c1-c1cccc(C(C)=O)c1` [P-284, N-[5-(3′-Acetyl-2-fluoro-6-methoxy-biphenyl-3-ylmethyl)-pyrimidin-2-yl]-methanesulfonamide], the IC50 at PDE4B and at PDE4 was less than 5 µM throughout.
As to `COc1ccc(Cc2ccc3nc(N)oc3c2)c(F)c1-c1cccc(Cl)c1` [P-285], the IC50 was 5 to 20 µM on PDE4B and less than 5 µM on PDE4.
As to `COc1ccc(Cc2ccc(CNC(N)=O)c(F)c2)c(F)c1-c1cccc(Cl)c1` [P-287], the IC50 at PDE4B and on PDE4 was less than 5 µM in each case.
For `COc1ccc(Cc2cnc(NC(N)=O)nc2)c(F)c1-c1cccc(Cl)c1` [P-291], the IC50 on PDE4B and at PDE4 was less than 5 µM each time.
For `COc1ccc(Cc2cnc(NS(C)(=O)=O)nc2)c(F)c1-c1cccc(Cl)c1` [P-292], the IC50 at PDE4B is 5 to 20 µM; on PDE4, less than 5 µM.
As for `COc1ccc(Cc2ccc(C#N)c(O)c2)c(F)c1-c1cccc(Cl)c1` [P-295], the results for the IC50 on PDE4B and at PDE4 were 21 to 40 µM and less than 5 µM, respectively.
In the same order, the values of `COc1ccc(Cc2ccc(CN)c(O)c2)c(F)c1-c1cccc(Cl)c1` [P-296] are 21 to 40 µM and less than 5 µM.
In the same order, the values of `COc1ccc(Cc2ccc(NS(C)(=O)=O)nc2)c(F)c1-c1cccc(C(C)=O)c1` [P-297] are 5 to 20 µM and less than 5 µM.
In the same order, the values of `COc1ccc(Cc2ccc(CNS(C)(=O)=O)c(O)c2)c(F)c1-c1cccc(Cl)c1` [P-299] are 5 to 20 µM and less than 5 µM.
On to `COc1ccc(Cc2ccc(CNC(C)=O)c(F)c2)c(F)c1-c1cccc(Cl)c1` [P-300], for which the IC50 at PDE4B and on PDE4 was less than 5 µM in each case.
In the case of `COc1ccc(Cc2ccc(CNC(N)=O)c(O)c2)c(F)c1-c1cccc(Cl)c1` [P-301], the IC50 on PDE4B and at PDE4 was less than 5 µM throughout.
Regarding `COc1ccc(Cc2ccc(CNC(C)=O)c(O)c2)c(F)c1-c1cccc(Cl)c1` [P-302], the IC50 on PDE4B and on PDE4 was less than 5 µM throughout.
Consider `COc1ccc(Cc2ccc(N(C)C)cc2)c(F)c1-c1cccc(Cl)c1` [P-303, [4-(3′-Chloro-2-fluoro-6-methoxy-biphenyl-3-ylmethyl)-phenyl]-dimethyl-amine], for which the IC50 on PDE4B and on PDE4 was less than 5 µM each time.
As for `COc1ccc(Cc2ccc(S(N)(=O)=O)cc2)c(F)c1-c1cccc(C(C)=O)c1` [P-304], the IC50 at PDE4B and at PDE4 was less than 5 µM throughout.
In the case of `COc1ccc(Cc2ccc(C(N)=O)cc2)c(F)c1-c1cccc(C(C)=O)c1` [P-305, 4-(3′-Acetyl-2-fluoro-6-methoxy-biphenyl-3-ylmethyl)-benzamide], the IC50 is 5 to 20 µM at PDE4B and less than 5 µM on PDE4.
Regarding `CCOc1ccc(Cc2ccc(OC)c(-c3cccc(Cl)c3)c2F)s1` [P-310, 2-(3′-Chloro-2-fluoro-6-methoxy-biphenyl-3-ylmethyl)-5-ethoxythiophene], the IC50 on PDE4B and at PDE4 was less than 5 µM in each case.
On to `CNc1ccc(Cc2ccc(OC)c(-c3cccc(Cl)c3)c2F)cc1` [P-311, [4-(3′-Chloro-2-fluoro-6-methoxy-biphenyl-3-ylmethyl)-phenyl]-methyl-amine], for which the IC50 at PDE4B and at PDE4 was less than 5 µM in each case.
Take `CC(=O)Nc1ccc(Cc2ccc(OC(F)F)c(-c3cccc(Br)c3)c2F)cc1` [P-313]: the IC50 at PDE4B and on PDE4 was less than 5 µM each time.
`CCNC(=O)Nc1ncc(Cc2ccc(OC)c(-c3cccc(C(C)=O)c3)c2F)cn1` [P-315, 1-[5-(3′-Acetyl-2-fluoro-6-methoxy-biphenyl-3-ylmethyl)-pyrimidin-2-yl]-3-ethyl-urea]: the IC50 at PDE4B and at PDE4 was less than 5 µM in each case.
`NC(=O)Nc1ccc(Cc2ccc(OC(F)F)c(-c3cccc([N+](=O)[O-])c3)c2F)cc1` [P-316]: the IC50 at PDE4B and at PDE4 was less than 5 µM throughout.
On to `Nc1ccc(Cc2ccc(OC(F)F)c(-c3cccc(Br)c3)c2F)cc1` [P-317], for which the IC50 at PDE4B and on PDE4 was less than 5 µM each time.
As to `CCNc1ccc(Cc2ccc(OC)c(-c3cccc(Cl)c3)c2F)cn1` [P-318], the IC50 on PDE4B and on PDE4 was less than 5 µM throughout.
As to `NC(=O)Nc1ccc(Cc2ccc(OC(F)F)c(-c3cccc(Br)c3)c2F)cc1` [P-323], the IC50 on PDE4B and at PDE4 was less than 5 µM in each case.
Regarding `COc1ccc(Cc2cnc(N(C)C)nc2)c(F)c1-c1cccc(C(C)=O)c1` [P-325, 1-[3′-(2-Dimethylamino-pyrimidin-5-ylmethyl)-2′-fluoro-6′-methoxy-biphenyl-3-yl]-ethanone], the IC50 on PDE4B and on PDE4 was less than 5 µM in each case.
As for `COc1ccc(Cc2ccc(C(N)=O)nc2)c(F)c1-c1cccc(C(C)=O)c1` [P-328, 5-(3′-Acetyl-2-fluoro-6-methoxy-biphenyl-3-ylmethyl)-pyridine-2-carboxylic acid amide], the IC50 on PDE4B and on PDE4 was less than 5 µM throughout.
Turning to `COc1ccc(Cc2ccc(CNC(C)=O)c(F)c2)c(F)c1-c1cccc(C(C)=O)c1` [P-329], the IC50 at PDE4B and on PDE4 was less than 5 µM each time.
For the compound `COc1ccc(Cc2ccc(CNC(N)=O)c(F)c2)c(F)c1-c1cccc(C(C)=O)c1` [P-330], the IC50 at PDE4B and at PDE4 was less than 5 µM in each case.
On to `CNc1ccc(Cc2ccc(OC)c(-c3cccc(C(C)=O)c3)c2F)cc1` [P-331, [4-(3′-Acetyl-2-fluoro-6-methoxy-biphenyl-3-ylmethyl)-phenyl]-methyl-amine hydrochloride], for which the IC50 at PDE4B and on PDE4 was less than 5 µM each time.
As to `COc1ccc(Cc2ccc(N(C)C)nc2)c(F)c1-c1cccc(C(C)=O)c1` [P-332, 1-[3′-(6-Dimethylamino-pyridin-3-ylmethyl)-2′-fluoro-6′-methoxy-biphenyl-3-yl]-ethanone], the IC50 at PDE4B and at PDE4 was less than 5 µM in each case.
For the compound `COc1ccc(Cc2nnc(N)s2)c(F)c1-c1cccc(Cl)c1` [P-333, 5-(3′-Chloro-2-fluoro-6-methoxy-biphenyl-3-ylmethyl)-[1,3,4]thiadiazol-2-ylamine], the IC50 at PDE4B and at PDE4 was less than 5 µM throughout.
Regarding `CCOc1ccc(Cc2ccc(N)cc2)c(F)c1-c1cccc(C(C)=O)c1` [P-334, 1-[3′-(4-Amino-benzyl)-6′-ethoxy-2′-fluoro-biphenyl-3-yl]-ethanone; hydrochloride], the IC50 on PDE4B and at PDE4 was less than 5 µM in each case.
As to `CCOc1ccc(Cc2ccc(NC(N)=O)cc2)c(F)c1-c1cccc(C(C)=O)c1` [P-335, [4-(3′-Acetyl-6-ethoxy-2-fluoro-biphenyl-3-ylmethyl)-phenyl]-urea], the IC50 on PDE4B and on PDE4 was less than 5 µM each time.
Consider `CNc1ccc(Cc2ccc(OC)c(-c3cccc(C(C)=O)c3)c2F)cn1` [P-336], for which the IC50 at PDE4B and at PDE4 was less than 5 µM throughout.
In the case of `COc1ccc(Cc2ccc(N(C)C(N)=O)cc2)c(F)c1-c1cccc(C(C)=O)c1` [P-338, 1-[4-(3′-Acetyl-2-fluoro-6-methoxy-biphenyl-3-ylmethyl)-phenyl]-1-methyl-urea], the IC50 at PDE4B and at PDE4 was less than 5 µM throughout.
With `CCNc1ccc(Cc2ccc(OC)c(-c3cccc(C(C)=O)c3)c2F)cn1` [P-339], the IC50 at PDE4B and on PDE4 was less than 5 µM throughout.
For `COc1ccc(Cc2csc(N)n2)c(F)c1-c1cccc(Cl)c1` [P-341, 4-(3′-Chloro-2-fluoro-6-methoxy-biphenyl-3-ylmethyl)-thiazol-2-ylamine], the IC50 on PDE4B and on PDE4 was less than 5 µM throughout.
Take `COC(=O)Nc1nnc(Cc2ccc(OC)c(-c3cccc(Cl)c3)c2F)s1` [P-342, Methyl[5-(3′-Chloro-2-fluoro-6-methoxy-biphenyl-3-ylmethyl)-[1,3,4]thiadiazol-2-yl]-carbamate]: the IC50 at PDE4B and on PDE4 was less than 5 µM each time.
For `CCNC(=O)Nc1nnc(Cc2ccc(OC)c(-c3cccc(Cl)c3)c2F)s1` [P-343, 1-[5-(3′-Chloro-2-fluoro-6-methoxy-biphenyl-3-ylmethyl)-[1,3,4]thiadiazol-2-yl]-3-ethyl-urea], the IC50 on PDE4B and at PDE4 was less than 5 µM each time.
As to `COc1ccc(Cc2ccc(CN)nc2)c(F)c1-c1cccc(Cl)c1` [P-344, C-[5-(3′-Chloro-2-fluoro-6-methoxy-biphenyl-3-ylmethyl)-pyridin-2-yl]-methylamine], the IC50 at PDE4B and at PDE4 was less than 5 µM in each case.
Consider `COc1ccc(Cc2ccc(NC(C)=O)nc2)c(F)c1-c1cccc(C(C)=O)c1` [P-345], for which the IC50 at PDE4B and at PDE4 was less than 5 µM throughout.
Regarding `CCNC(=O)Nc1nc(Cc2ccc(OC)c(-c3cccc(Cl)c3)c2F)cs1` [P-346, 1-[4-(3′-Chloro-2-fluoro-6-methoxy-biphenyl-3-ylmethyl)-thiazol-2-yl]-3-ethyl-urea], the IC50 on PDE4B is 5 to 20 µM; at PDE4, less than 5 µM.
On to `COc1ccc(Cc2ccc(NC(N)=O)cc2)c(F)c1-c1cccc(Br)c1` [P-347], for which the IC50 at PDE4B and on PDE4 was less than 5 µM throughout.
As for `COc1ccc(Cc2nnc(NC(N)=O)s2)c(F)c1-c1cccc(Cl)c1` [P-352, [5-(3′-Chloro-2-fluoro-6-methoxy-biphenyl-3-ylmethyl)-[1,3,4]thiadiazol-2-yl]-urea], the IC50 on PDE4B and on PDE4 was less than 5 µM throughout.
With `COc1ccc(Cc2ccc(C#N)nc2)c(F)c1-c1cccc(Cl)c1` [P-355], the IC50 on PDE4B and on PDE4 was less than 5 µM throughout.
On to `CCNC(=O)Nc1ccc(Cc2ccc(OC)c(-c3cccc(Cl)c3)c2F)cn1` [P-356], for which the IC50 on PDE4B and at PDE4 was less than 5 µM each time.
`CCOC(=O)Nc1ccc(Cc2ccc(OC)c(-c3cccc(Cl)c3)c2F)cn1` [P-357]: the IC50 on PDE4B and at PDE4 was less than 5 µM in each case.
With `CCOC(=O)N(CC)c1ccc(Cc2ccc(OC)c(-c3cccc(Cl)c3)c2F)cn1` [P-359], the IC50 is 5 to 20 µM on PDE4B and less than 5 µM at PDE4.
